Measurements as given in article PMC10460054, “Multiplex Quantitative Analysis of 9 Compounds of Scutellaria baicalensis Georgi in the Plasma of Respiratory Syncytial Virus-Infected Mice Based on HPLC-MS/MS and Pharmacodynamic Effect Correlation Analysis” (Molecules, 2023).

Key:
[1] = Stability of 9 compounds in mouse plasma under storage conditions; format: in vitro ADME; conditions: n = 6; for Stability 3-Freeze-Thaw Cycles RE: 3 times repeated freeze-thaw at −80 °C; for Stability Short-Term RE: 12 h at 4 °C; for Stability Long-Term RE: −20 °C for 20 days
[2] = HPLC-MS/MS quantification of 9 compounds in plasma of RSV-infected mice after Scutellaria baicalensis Georgi administration; format: in vivo, BALB/c mice; set-up: drug-containing plasma content: unit not given here; conditions: for time of highest plasma concentration, first peak / time of highest plasma concentration, second peak: RSV-infected mice after Scutellaria baicalensis Georgi administration, double peak phenomenon
Experimental: The study employed a Vanquish high-performance liquid chromatograph for chromatographic separation, with a HALO C18 column (2.1 × 100 mm, 2.7 μm) as the chromatographic column.
Mass spectrometry was performed using a quadrupole-electrostatic field orbitrap desktop mass spectrometer equipped with an electrospray ion source (ESI). The ESI parameters were set as follows: the pyrolysis voltage was 3.0 kV, the auxiliary gas flow rate was 10 mL/min, the ion transport tube temperature was 350 °C, the auxiliary gas temperature was 350 °C, and the sheath gas flow rate was 45 L/min. Quantitative analysis was performed using the selective ion detection (SIM) mode (Table S1).
Male BALB/c mice, aged 2 weeks and weighing 10–12 g, were chosen for this study. They were acclimatized for 2 days and then randomly assigned to one of five groups: blank (C), model (M), positive control ribavirin (Y1), positive control lianhua qingwen granules (Y2), and Scutellaria baicalensis Georgi administration (H1-H12). Each group consisted of six mice, and their weights were recorded. The mice were pre-administered for 2 days, and on the third day, RSV virus (TCID50 = 10^−6) was inoculated through intranasal infection at a volume of 35 μL per mouse. The blank group was inoculated with normal saline of the same volume. After the inoculation of the RSV virus, the blank and model groups were given distilled water by gavage, while the drug-administered groups were given an aqueous extract of Scutellaria baicalensis Georgi (10 µL/g) once a day for 3 days. The mice were observed daily for their mental status, hair color, diet, and body weight. […] It was then centrifuged at 3000 r/min for 10 min, and the upper layer of plasma was stored at −80℃. Lung tissues were weighed, the lung index was calculated, and the lung tissues were stored in the refrigerator at −80 °C for freezing.
The plasma sample (200 μL) was processed in a 5 mL tube. Subsequently, 10 μL of 5% formic acid and 20 μL of 2 mol/L hydrochloric acid were added, followed by vortexing for 1 min with 10 μL of internal standard solution (100 ng/mL tinidazole). The extraction was completed by adding 2000 μL of acetonitrile solvent and vortexing for 2 min. The mixture was then centrifuged at 12,000 r/min at 4 °C for 10 min, and the supernatant solution was collected in a new centrifuge tube. The supernatant solution was dried by nitrogen at room temperature before being redissolved in 50 μL of 70% acetonitrile solution containing 0.1% formic acid. After vortexing for 1 min, the solution was centrifuged at 12,000 r/min at 4 °C for 10 min, and the resulting supernatant was injected for analysis. The injection volume was 3 μL.
The drug-containing plasma at different time points was subjected to sample treatment. The HPLC-MS/MS analysis method was used to quantitatively detect the 9 compounds in the ion detection (SIM) mode. According to the relative peak area value = index peak area/internal standard peak area, the corresponding concentration value was calculated by substituting the standard curve of each component.

[3] = high QC (20,000 or 10,000 ng/mL)
[4] = male, BALB/c, mouse, in vivo, 0.083 h
[5] = male, BALB/c, mouse, in vivo, 0.167 h
[6] = male, BALB/c, mouse, in vivo, 0.25 h
[7] = male, BALB/c, mouse, in vivo, 0.5 h
[8] = male, BALB/c, mouse, in vivo, 1 h
[9] = male, BALB/c, mouse, in vivo, 2 h
[10] = male, BALB/c, mouse, in vivo, 4 h
[11] = male, BALB/c, mouse, in vivo, 6 h
[12] = male, BALB/c, mouse, in vivo, 8 h
[13] = male, BALB/c, mouse, in vivo, 10 h
[14] = male, BALB/c, mouse, in vivo, 12 h
[15] = male, BALB/c, mouse, in vivo, 24 h
[16] = RSV-infected mice, 0.083 h after last gavage of Scutellaria baicalensis Georgi extract, mean ± SD, n = 6
[17] = RSV-infected mice, 0.167 h after last gavage of Scutellaria baicalensis Georgi extract, mean ± SD, n = 6
[18] = RSV-infected mice, 0.25 h after last gavage of Scutellaria baicalensis Georgi extract, mean ± SD, n = 6
[19] = RSV-infected mice, 0.5 h after last gavage of Scutellaria baicalensis Georgi extract, mean ± SD, n = 6
[20] = RSV-infected mice, 1 h after last gavage of Scutellaria baicalensis Georgi extract, mean ± SD, n = 6
[21] = RSV-infected mice, 2 h after last gavage of Scutellaria baicalensis Georgi extract, mean ± SD, n = 6
[22] = RSV-infected mice, 4 h after last gavage of Scutellaria baicalensis Georgi extract, mean ± SD, n = 6
[23] = RSV-infected mice, 6 h after last gavage of Scutellaria baicalensis Georgi extract, mean ± SD, n = 6
[24] = RSV-infected mice, 8 h after last gavage of Scutellaria baicalensis Georgi extract, mean ± SD, n = 6
[25] = RSV-infected mice, 10 h after last gavage of Scutellaria baicalensis Georgi extract, mean ± SD, n = 6
[26] = RSV-infected mice, 12 h after last gavage of Scutellaria baicalensis Georgi extract, mean ± SD, n = 6
[27] = RSV-infected mice, 24 h after last gavage of Scutellaria baicalensis Georgi extract, mean ± SD, n = 6

time of highest plasma concentration, first peak [2] [h]	time of highest plasma concentration, second peak [2] [h]	SMILES	Stability 3-Freeze-Thaw Cycles RE [1, 3] [%]	Stability 3-Freeze-Thaw Cycles RE ([1]; low QC (12.5 or 25.6 ng/mL)) [%]	Stability 3-Freeze-Thaw Cycles RE ([1]; medium QC (320 or 160 ng/mL)) [%]	Stability Short-Term RE [1, 3] [%]	Stability Short-Term RE ([1]; low QC (12.5 or 25.6 ng/mL)) [%]	Stability Short-Term RE ([1]; medium QC (320 or 160 ng/mL)) [%]	Stability Long-Term RE [1, 3] [%]	Stability Long-Term RE ([1]; low QC (12.5 or 25.6 ng/mL)) [%]	Stability Long-Term RE ([1]; medium QC (320 or 160 ng/mL)) [%]	drug-containing plasma content [2, 16]	drug-containing plasma content [2, 17]	drug-containing plasma content [2, 18]	drug-containing plasma content [2, 19]	drug-containing plasma content [2, 20]	drug-containing plasma content [2, 21]	drug-containing plasma content [2, 22]	drug-containing plasma content [2, 23]	drug-containing plasma content [2, 24]	also measured
0.167	6	O=c1cc(-c2ccccc2)oc2c(O)c(O)cc(O)c12 [Norwogonin]	1.97	−6.11	7.06	−1.39	−2.17	0.74	0.11	−8.96	3.74	28.17± 2.96	94.18± 5.68	23.48± 0.05	13.88± 4.73	12.42± 7.14	0	14.29± 9.94	113.88± 4.73	21.94± 0.43	drug-containing plasma content [2, 25]: 16.07± 3.80; drug-containing plasma content [2, 26]: 0; drug-containing plasma content [2, 27]: 0
0.167	6	O=c1cc(-c2ccccc2)oc2cc(O)c(O)c(O)c12 [Baicalein]																			drug-containing plasma content [2, 4]: 235.76± 21.97; drug-containing plasma content [2, 5]: 573.93± 23.68; drug-containing plasma content [2, 6]: 437.59± 15.17; drug-containing plasma content [2, 7]: 243.84± 16.32; drug-containing plasma content [2, 8]: 208.98± 14.58; drug-containing plasma content [2, 9]: 25.73± 5.59; drug-containing plasma content [2, 10]: 43.00± 8.66; drug-containing plasma content [2, 11]: 792.15± 41.3; drug-containing plasma content [2, 12]: 184.80± 29.24; drug-containing plasma content [2, 13]: 120.93± 15.03; drug-containing plasma content [2, 14]: 9.28± 5.01; drug-containing plasma content [2, 15]: 1.42± 5.86
0.167	6	COc1c(O[C@@H]2O[C@H](C(=O)O)[C@@H](O)[C@H](O)[C@H]2O)cc(O)c2c(=O)cc(-c3ccccc3)oc12 [Wogonoside]	1.79	−8.61	0.60	3.40	−3.08	−1.39	3.40	−2.30	−2.01	553.37± 9.22	1829.58± 102.08	928.49± 33.77	776.20± 41.04	1078.05± 63.01	1333.51± 38.28	1372.78± 53.34	3829.58± 182.08	1825.89± 177.13	drug-containing plasma content [2, 25]: 318.50± 23.92; drug-containing plasma content [2, 26]: 188.85± 19.38; drug-containing plasma content [2, 27]: 0

The remaining lines, values behind:

SMILES	time of highest plasma concentration, first peak [2] [h]	time of highest plasma concentration, second peak [2] [h]	Stability 3-Freeze-Thaw Cycles RE [1, 3] [%]	Stability 3-Freeze-Thaw Cycles RE ([1]; low QC (12.5 or 25.6 ng/mL)) [%]	Stability 3-Freeze-Thaw Cycles RE ([1]; medium QC (320 or 160 ng/mL)) [%]	Stability Short-Term RE [1, 3] [%]	Stability Short-Term RE ([1]; low QC (12.5 or 25.6 ng/mL)) [%]	Stability Short-Term RE ([1]; medium QC (320 or 160 ng/mL)) [%]	Stability Long-Term RE [1, 3] [%]	Stability Long-Term RE ([1]; low QC (12.5 or 25.6 ng/mL)) [%]	Stability Long-Term RE ([1]; medium QC (320 or 160 ng/mL)) [%]	drug-containing plasma content [2, 16]	drug-containing plasma content [2, 17]	drug-containing plasma content [2, 18]	drug-containing plasma content [2, 19]	drug-containing plasma content [2, 20]	drug-containing plasma content [2, 21]	drug-containing plasma content [2, 22]	drug-containing plasma content [2, 23]	drug-containing plasma content [2, 24]	also measured
O=C(O)[C@H]1O[C@@H](Oc2cc3oc(-c4ccccc4)cc(=O)c3c(O)c2O)[C@H](O)[C@@H](O)[C@@H]1O [Baicalin]	0.167	6	7.69	−7.38	−2.37	5.73	−9.16	−5.85	5.87	−8.15	−5.21										drug-containing plasma content [2, 4]: 2434.28± 151.56; drug-containing plasma content [2, 5]: 4607.45± 318.09; drug-containing plasma content [2, 6]: 2031.56± 103.57; drug-containing plasma content [2, 7]: 2696.64± 110.33; drug-containing plasma content [2, 8]: 2474.37± 225.92; drug-containing plasma content [2, 9]: 2620.76± 117.82; drug-containing plasma content [2, 10]: 1587.10± 169.68; drug-containing plasma content [2, 11]: 8607.45± 428.09; drug-containing plasma content [2, 12]: 1856.98± 113.03; drug-containing plasma content [2, 13]: 569.32± 20.22; drug-containing plasma content [2, 14]: 39.89± 7.45; drug-containing plasma content [2, 15]: 15.44± 5.62
COc1c(O)cc2oc(-c3ccccc3)cc(=O)c2c1O [Oroxylin A]	0.167	6	−5.29	−4.26	−8.41	−4.07	−3.30	−5.14	−7.03	−6.71	−5.78	13.47± 9.43	745.77± 35.54	63.52± 1.32	40.44± 4.81	160.88± 15.86	75.84± 5.43	486.23± 8.65	1063.52± 101.32	300.68± 17.25	drug-containing plasma content [2, 25]: 19.18± 2.56; drug-containing plasma content [2, 26]: 13.60± 7.94; drug-containing plasma content [2, 27]: 0
O=c1cc(-c2ccccc2)oc2cc(O)cc(O)c12 [Chrysin]			−2.47	−6.42	−5.15	−2.74	−5.59	−10.49	−3.86	−4.52	−9.37	0	0	0	10.37± 2.12	15.38± 4.94	21.43± 4.86	12.37± 2.12	60.64± 2.86	0	drug-containing plasma content [2, 25]: 0; drug-containing plasma content [2, 26]: 0; drug-containing plasma content [2, 27]: 0
